Laboratory results: US20260258084A1, “New Peptides as Selective IL-23 Receptor Antagonists” (Sanofi, priority 2022, published 2026)
≈ marks a conversion by molar mass, not a printed value. Read-outs that look alike come from different tables or passages of the source. Starred links: 1 amine or outer side, 2 acyl side, 3 side chain; linkers in the order of their positions; H or OH if unused. Positions of bridges follow the written chain, without caps; N, C: chain ends. Non-standard residues stand in square brackets, D forms with d. Residues, ends and D or L forms follow the SMILES beside them. *: point of attachment. Trp(7-Me) = Cc1cccc2c(C[C@H](N)C(=O)O)c[nH]c12; X1 = O=C(CCCCN[*:3])N[C@@H](CS[*:2])C(=O)[*:1]; 2Nal = N[C@@H](Cc1ccc2ccccc2c1)C(=O)O; 3Pal = N[C@@H](Cc1cccnc1)C(=O)O; αMeL = CC(C)C[C@](C)(N)C(=O)O; αMeP = C[C@@]1(C(=O)O)CCCN1; Thp = NC1(C(=O)O)CCOCC1; Me2NCH2CH2 = CN(C)CC*; Aib = CC(C)(N)C(=O)O; Ava = NCCCCC(=O)O; Sar = CNCC(=O)O

Assays:
[1] = test system: IL-23 induced STAT3 signaling in HEK-Blue™ IL-23 cells; assay: IL-23 induced STAT3 signaling in HEK-Blue IL-23 cells (SEAP reporter); assay type: cell-based; settings: human IL23 0.25 ng/ml, read-out: pSTAT3
How it was run: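 Secreted SEAP, read at OD 620-655 nm after 45 min QUANTI-Blue development, reports STAT3 activation. Beforehand, cells were exposed to peptide dilutions for 60 min at 37 °C and then to 0.25 ng/ml final human IL-23 overnight, at 10,000 cells/well.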

[2] = test system: T1, Pepsin; assay: Protease stability in simulated gastric fluid (Pepsin-SGF, FaSSGF); assay type: in vitro ADME; settings: simulated gastric fluid with pepsin (Pepsin-SGF), 60 min, 1 μM peptide, 37° C., read-out: FaSSGF 60 (min), remaining percent of peptide
T1 construct: purchased Merck Millipore
How it was run: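 LCMS/MS peak areas, normalised to the time-0 sample as 100%, give percent remaining. Conditions: 37° C incubation of 1 μM final peptide in simulated gastric fluid with pepsin; ethanol/0.1% HCOOH quench at 0, 60, 120, 240 min.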

[3] = molecular target: T2, human interleukin-23 receptor (recombinant human IL-23R-Fc chimera) (Homo sapiens, UniProt Q5VWK5); assay: Human ELISA IL23/IL23R (assay for specific human IL23R antagonists); assay type: binding; settings: Table 10; read-out: Human ELISA IL23/IL23R IC50
T2 construct: Fc (IgG Fc fusion)
How it was run: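 Competition format: peptide dilutions compete for IL23R-Fc chimera (0.1 μg/ml final, 60 min, room temperature) binding to immobilized human IL23 coated at […] overnight at 4 °C. Read-out is fluorogenic HRP signal from goat anti-hu-IgG1 detecting captured receptor.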

[4] = test system: Pancreatin; assay: Protease stability in simulated intestinal fluid (Pancreatin-SIF, FaSSIF); assay type: in vitro ADME; settings: 1 μM peptide, 37° C.; for remaining at 1 h, 1 µM: 60 min, read-out: FaSSIF 60 (min), remaining percent of peptide; for remaining at 2 h, 1 µM: 120 min, read-out: FaSSIF 120 (min), remaining percent of peptide; for remaining at 4 h, 1 µM: 240 min, read-out: FaSSIF 240 (min), remaining percent of peptide
How it was run: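 LC-MS/MS peak areas at 0, 60, 120 and 240 min, normalised to time 0 as 100%, give percent remaining. Reactions used 1 μM final peptide at 37° C in pancreatin-SIF (1 mg pancreatin in 10 mL SIF concentrate) and were stopped with ethanol containing 0.1% HCOOH.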

[5] = Solubility testing of peptides at different pH; assay type: physicochemical; settings: target concentration 1 mg/ml, 2 hours agitation
How it was run: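 Four buffers were used: 50 mM HCl pH 1.2 and 50 mM phosphate at pH 6.5, 7.4 and 9.0, each receiving dried-down compound at a 1 mg/mL target. After 2 h gentle shaking and 0.45 μm filtration, UV peak areas were compared with a DMSO standard curve of known concentration, allowing for extinction coefficients.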

[6] = 50 mM HCl buffer, 50 mM HCl pH 1.2, read-out: Solubility Buffer pH 1.2
[7] = 50 mM phosphate buffer pH 6.5, read-out: Solubility Buffer pH 6.5
[8] = 50 mM phosphate buffer pH 7.4, read-out: Solubility Buffer pH 7.4
[9] = 50 mM phosphate buffer pH 9.0, read-out: Solubility Buffer pH 9.0

Compound | IC50 [1] [nM] | remaining at 1 h, 1 µM [2] [%] | IC50 [3] [nM] | remaining at 1 h, 1 µM [4] [%] | remaining at 2 h, 1 µM [4] [%] | remaining at 4 h, 1 µM [4] [%] | solubility at 2 h [5, 6] [µg/mL] | solubility at 2 h [5, 7] [µg/mL] | solubility at 2 h [5, 8] [µg/mL] | solubility at 2 h [5, 9] [µg/mL]
C[C@@H](O)[C@@H]1NC(=O)[C@H](CC(N)=O)NC(=O)[C@@H]2CSSC[C@H](NC(=O)[C@H](CCC(N)=O)NC(=O)[C@H](Cc3c[nH]c4ccccc34)NC1=O)C(=O)N[C@@H](Cc1ccc(OCCN(C)C)cc1)C(=O)N[C@H](Cc1ccc3ccccc3c1)C(=O)NC(C)(C)C(=O)N[C@H](C(=O)N[C@@H](CC(N)=O)C(=O)N[C@@H](CC(N)=O)C(N)=O)CCC(=O)NCCCCC(=O)N2 [compound 8] | 5.54 | 92 | 0.24 | 97 | 91 | 82 | ≥ 990 | ≥ 1000 | ≥ 1020 | ≥ 1040
CC(=O)NCCCC[C@@H]1NC(=O)[C@H](Cc2c[nH]c3c(C)cccc23)NC(=O)[C@H]([C@@H](C)O)NC(=O)[C@H](CC(N)=O)NC(=O)[C@@H]2CSSC[C@H](NC1=O)C(=O)N[C@@H](Cc1ccc(OCCN(C)C)cc1)C(=O)N[C@@H](Cc1ccc3ccccc3c1)C(=O)NC1(CCOCC1)C(=O)N[C@H](C(=O)N[C@@H](CC(N)=O)C(=O)N[C@@H](Cc1c[nH]cn1)C(N)=O)CCC(=O)NCCCCC(=O)N2 [compound 21] ([Ava]CNT[Trp(7-Me)]K(Ac)CY(Me2NCH2CH2)[2Nal][Thp]ENH-NH2; disulfide 2-7; lactam N-11) | 2.67 | 91 | 0.31 | 89 | 77 | 75 | ≥ 1080 | ≥ 1010 | ≥ 970 | 230 (≈ 126 µM)
Cc1cccc2c(C[C@@H]3NC(=O)[C@H]([C@@H](C)O)NC(=O)[C@H](CC(N)=O)NC(=O)[C@@H]4CSSC[C@H](NC(=O)[C@H](CCC(N)=O)NC3=O)C(=O)N[C@@H](Cc3ccc(OCCN(C)C)cc3)C(=O)N[C@@H](Cc3ccc5ccccc5c3)C(=O)N[C@@](C)(CC(C)C)C(=O)N[C@H](C(=O)N[C@@H](CC(N)=O)C(=O)N[C@@H](Cc3cccnc3)C(=O)N(C)CC(N)=O)CCC(=O)NCCCCC(=O)N4)c[nH]c12 [compound 63] ([Ava]CNT[Trp(7-Me)]QCY(Me2NCH2CH2)[2Nal][αMeL]EN[3Pal][Sar]-NH2; disulfide 2-7; lactam N-11) | 0.2 | 95 | 0.41 | 90 | 86 | 81 | ≥ 910 | ≥ 980 | ≥ 910 | 
CC[C@H](C)[C@H](NC(=O)[C@H](Cc1cccnc1)NC(=O)[C@H](CC(N)=O)NC(=O)[C@@H]1CCC(=O)NCCCCC(=O)N[C@H]2CSSC[C@H](NC(=O)[C@H](CCCCNC(C)=O)NC(=O)[C@H](Cc3c[nH]c4ccccc34)NC(=O)[C@H]([C@@H](C)O)NC(=O)[C@H](CC(N)=O)NC2=O)C(=O)N[C@@H](Cc2ccc(OCCN(C)C)cc2)C(=O)N[C@@H](Cc2ccc3ccccc3c2)C(=O)NC(C)(C)C(=O)N1)C(N)=O [compound 37] ([Ava]CNTWK(Ac)CY(Me2NCH2CH2)[2Nal][Aib]EN[3Pal]I-NH2; disulfide 2-7; lactam N-11) | 2 | 77 | 0.38 | 80 | 79 | 63 | ≥ 890 | ≥ 940 | 590 (≈ 311 µM) | 90 (≈ 47.5 µM)
COc1ccc(C[C@@H]2NC(=O)[C@@H]3CSSC[C@H](NC(=O)CCCCNC(=O)CC[C@@H](C(=O)N[C@@H](CC(N)=O)C(=O)N[C@@H](CC(N)=O)C(N)=O)NC(=O)C(C)(C)NC(=O)[C@H](Cc4ccc5ccccc5c4)NC2=O)C(=O)N[C@@H](CC(N)=O)C(=O)N[C@@H]([C@@H](C)O)C(=O)N[C@@H](Cc2c[nH]c4ccccc24)C(=O)N[C@@H](CCC(N)=O)C(=O)N3)cc1 [compound 1] ([Ava]CNTWQCY(Me)[2Nal][Aib]ENN-NH2; disulfide 2-7; lactam N-11) | 18.5 | 2 | 0.72 | 72 | 74 | 58 | 100 (≈ 60.6 µM) | < 50 | < 50 | 
CC(=O)NCCCC[C@@H]1NC(=O)[C@H](Cc2c[nH]c3c(C)cccc23)NC(=O)[C@H]([C@@H](C)O)NC(=O)[C@H](CC(N)=O)NC(=O)[C@@H]2CSSC[C@H](NC1=O)C(=O)N[C@@H](Cc1ccc(OCCN(C)C)cc1)C(=O)N[C@@H](Cc1ccc3ccccc3c1)C(=O)NC1(CCOCC1)C(=O)N[C@H](C(=O)N[C@@H](CC(N)=O)C(=O)N[C@@H](Cc1c[nH]cn1)C(=O)N1CCC[C@@]1(C)C(N)=O)CCC(=O)NCCCCC(=O)N2 [compound 55] ([Ava]CNT[Trp(7-Me)]K(Ac)CY(Me2NCH2CH2)[2Nal][Thp]ENH[αMeP]-NH2; disulfide 2-7; lactam N-11) | 0.95 | 91 | 0.4 | 89 | 80 | 82 | ≥ 1110 | ≥ 1040 | ≥ 960 | 
CC(=O)NCCCC[C@@H]1NC(=O)[C@H](Cc2c[nH]c3c(C)cccc23)NC(=O)[C@@H](NC(C)=O)CCCCNC(=O)[C@@H]2CSSC[C@H](NC1=O)C(=O)N[C@@H](Cc1ccc(OCCN(C)C)cc1)C(=O)N[C@@H](Cc1ccc3ccccc3c1)C(=O)NC1(CCOCC1)C(=O)N[C@H](C(=O)N[C@@H](CC(N)=O)C(=O)N[C@@H](Cc1cccnc1)C(=O)N(C)CC(N)=O)CCC(=O)NCCCCC(=O)N2 [compound 66] (Ac-K[Trp(7-Me)]K(Ac)CY(Me2NCH2CH2)[2Nal][Thp]EN[3Pal][Sar]-NH2; linker 1-4-8 via X1) | 0.15 | 94 | 0.52 | 94 | 94 | 88 | ≥ 1630 | ≥ 1040 | ≥ 1290 | ≥ 1130
CC(=O)NCCCC[C@@H]1NC(=O)[C@H](Cc2c[nH]c3c(C)cccc23)NC(=O)[C@H]([C@@H](C)O)NC(=O)[C@H](CC(N)=O)NC(=O)[C@@H]2CSSC[C@H](NC1=O)C(=O)N[C@@H](Cc1ccc(OCCN(C)C)cc1)C(=O)N[C@@H](Cc1ccc3ccccc3c1)C(=O)NC1(CCOCC1)C(=O)N[C@H](C(=O)N[C@@H](CO)C(=O)N[C@@H](Cc1cccnc1)C(=O)N(C)CC(N)=O)CCC(=O)NCCCCC(=O)N2 [compound 56] ([Ava]CNT[Trp(7-Me)]K(Ac)CY(Me2NCH2CH2)[2Nal][Thp]ES[3Pal][Sar]-NH2; disulfide 2-7; lactam N-11) | 0.16 | 86 | 0.57 | 90 | 76 | 77 | ≥ 1090 | ≥ 920 | ≥ 1030 | 
